Laboratory results published in publication PMC11513924, “Addressing the Intracellular Vestibule of the Plasmodial Lactate Transporter PfFNT by p-Substituted Inhibitors Amplifies In Vitro Activity” (Journal of Medicinal Chemistry, 2024).
Numbering of substitutions follows the chain as printed. Read-outs that look alike come from different tables or passages of the source.

Key:
PfFNT [1] = molecular target: T1, PfFNT (Plasmodium falciparum, UniProt O77389); test: Yeast-based PfFNT 14C-lactate transport assay; assay type: cell-based; settings: 14C-lactate transport, PfFNT wild type; read-out: IC50 (transport, yeast)
T1 construct: expressed in transfected cells; membranes solubilized
T1 sequence (O77389 1-309): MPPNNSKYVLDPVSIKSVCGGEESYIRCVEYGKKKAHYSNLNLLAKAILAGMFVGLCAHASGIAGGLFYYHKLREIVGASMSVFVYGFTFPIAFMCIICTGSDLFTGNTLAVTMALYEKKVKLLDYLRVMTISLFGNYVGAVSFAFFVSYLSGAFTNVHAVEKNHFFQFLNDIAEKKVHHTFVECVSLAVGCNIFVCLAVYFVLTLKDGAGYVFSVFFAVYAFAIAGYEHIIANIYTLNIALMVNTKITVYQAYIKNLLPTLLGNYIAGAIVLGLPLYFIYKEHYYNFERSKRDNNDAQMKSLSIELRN
Protocol: (§1) Lactate transport functionality of PfFNT was assayed as described before.[4] Briefly, Saccharomyces cerevisiae W303-1A jen1Δady2Δcells[32] (MATa, can1-100, ade2-loc, his3-11-15, leu2-3,-112, trp1-1-1, ura3-1, jen1::kanMX4, ady2::hphMX4) kindly provided by M. Casal expressing PfFNT was grown at 29 °C to an OD600 of 1 (±0.1). Harvested cells were resuspended to an OD600 of 50 (±5) in 50 mM HEPES/Tris, pH 6.8 (±0.1). 10–15 min prior to the assay, 80 μL of yeast suspension were added to 1 μL of DMSO with or without inhibitor in a 1.5 mL reaction tube at 18 °C. Twenty μL of L-lactate solution spiked with [1-^14C]-L-lactate (Hartmann Analytic) was added yielding a 1 mM inward gradient with 0.04 μCi label. Transport was stopped after 30 s by abrupt dilution with 1 mL of ice-cold water, vacuum filtration via GF/C filter membranes (Whatman), and washing with 7 mL of ice-cold water. The radio label was analyzed by liquid scintillation counting in 3 mL of scintillation cocktail (Rotiszint eco plus, Carl Roth) using a Packard TriCarb 2900 TR (PerkinElmer Inc.).
(§2) Transport assays in yeast were done in triplicate biological replicates. At least nine technical replicates were measured around the IC50 value, concentrations with no or full inhibition were determined from at least three technical replicates. EC50-values were determined from 2 to 4 biological replicates. IC50 and EC50 curves were fitted by the Hill equation with variable slope (Graph Pad Prism 10). Error bars denote ± SEM (for n ≥ 3) or ± range (for n = 2). For the EC50-value of 7a the error of the fitting of the curve is given. Cytotoxicity was determined from biological triplicates; error is shown as SEM.

PfFNT [2] = molecular target: T1, PfFNT; test: Fluorescence cross-correlation spectroscopy (FCCS) competition binding to solubilized PfFNT-GFP
Protocol: FCCS measurements were conducted and analyzed as before.[20],[30] Briefly, membranes of stably transfected cells expressing PfFNT with a C-terminal GFP (green) were solubilized. BH267.meta 2 fused with DY647 (red) was used as a tracer to monitor the binding of compounds in a competition assay. Assays were done in […] glass bottom plates (cat. no. PS96B-G175, SWISSCI, Switzerland) using a plate reader (Insight, Evotec Technologies, Germany) fitted with a U-Apo300 40× water immersion lens, NA 1.15 (Olympus, Japan). Excitation was done with an argon-ion laser (488 nm) and a helium–neon laser (633 nm). Fluorescence fluctuations were recorded 10 times for 5 s per sample and fitted using FCS+ plus Analyze (PerkinElmer software). Initially, IC50 values were determined from the concentration of the dual labeled complex titrated against a competitor in a range of 100 pM to 100 μM (Figure S1). Then, Ki values were calculated using the Cheng Prusoff equation[31] based on the previously determined KD value for the BH267.meta-DY647 tracer.[20]

[3] = tested on: Plasmodium falciparum 3D7 parasites; test: P. falciparum 3D7 culture growth assay in erythrocytes (in vitro activity); assay type: cell-based; settings: Plasmodium falciparum, 3D7, Erythrocyte; for activity at 0.05 µM / activity at 0.1 µM / activity at 0.2 µM: 48 h, % of untreated control; for activity at 0.05 µM / inhibition at 0.05 µM: 50 nM compound; for activity at 0.05 µM: read-out: % Growth at 50 nM (in vitro, 3D7); for activity at 0.1 µM: 100 nM compound, read-out: % Growth at 100 nM (in vitro, 3D7); for activity at 0.2 µM: 200 nM compound, read-out: % Growth at 200 nM (in vitro, 3D7); for inhibition at 0.05 µM: 100 minus % growth, read-out: inhibitory activity at 50 nM (in vitro, 3D7)
Protocol: The parasitemia was measured using an LSR II FACS (BD Biosciences) as described.[34],[35] Growth was assessed as % of untreated control. EC50 curves were plotted using Graph Pad Prism.
as §2, with “EC50-values were determined from 2 to 4 biological replicates.” left out, “For the EC50-value of 7a the error of the fitting of the curve is given.” left out

P. berghei = tested on: P. berghei; design: method as in PMID 37428074; settings: all dosing regimens; cited from earlier work
albumin = test: Plasma protein (albumin) binding by ultracentrifugation; assay type: in vitro ADME; settings: pooled human plasma
Protocol: (§3) Clearance, half-life and plasma protein binding were assayed at TGC LifeScience, Kolkata, India, as described before.[36] Test compounds were incubated in duplicate in 96-well plates at 1 μM concentration with pooled human liver microsomes in 0.1 M phosphate buffer, pH 7.4 (0.4 mg mL^–1 final protein concentration; XenoTech, Lenexa, KS) in the presence and absence of 1 mM NADPH. Metabolism reactions were stopped by addition of 300 μL of ice-cold acetonitrile containing carbamazepine at 0.0236 μg mL^–1 as an internal standard, collection and analysis of the supernatant by LC–MS/MS (Agilent Rapid Resolution HPLC, AB SCIEX 4500 MS). The relative loss of the test compound over time was used to determine the first order rate constant for calculation of the in vitro intrinsic clearance and half-life.[37] Plasma protein binding was determined by ultracentrifugation from pooled human plasma spiked with 5 μM test compound. Aliquots were transferred immediately (total plasma concentration) or after 1 h at 37 °C (protein bound fraction) to ice-cold acetonitrile containing 0.0236 μg mL^–1 carbamazepine as an internal standard, ultracentrifuged for 4 h at 37 °C (Beckman Optima L-80XP), and analyzed by LC–MS/MS (Agilent Rapid Resolution HPLC, AB SCIEX 4500 QTRAP MS).

[4] = tested on: Plasmodium falciparum 3D7 parasites; settings: ref Walloch[6] et al. 2020; read-out: EC50 (in vitro, 3D7); cited from earlier work
[5] = Microsomal clearance and half-life; assay type: in vitro ADME, human; settings: 1 μM compound, 0.4 mg mL^–1 protein
Protocol: as §3

[6] = Lipophilicity log D7.4 by HPLC (OECD guideline); assay type: physicochemical; settings: RP-8 HPLC column (ZORBAX Eclipse XDB-C8), pH 7.4
Protocol: Lipophilicity was determined according to the OECD Guidelines for the Testing of Chemicals no. […]. Briefly, the test compounds plus 9 standards (4-acetylpyridine, acetanilide, acetophenone, methyl benzoate, ethyl benzoate, benzophenone, phenyl benzoate, diphenyl ether, triphenylamine) were separated by HPLC with UV detection at 220 nm (Waters HPLC 1525 with tunable absorbance detector 486) using an RP-8 column (Agilent Technologies ZORBAX Eclipse XDB-C8 4.6 × 150 mm, 5 μm) at 20 °C. Eluents A (20 mM ammonium formate, pH 7.4) and B (methanol) were used to generate a gradient profile of 80% A–100% B (0–35 min), 100% B (35–37 min), 100% B–80% A (37–42 min), and 80% A (42–55 min) at a flow rate of 0.8 mL min^–1. The dead time was determined via the injection peak caused by the solvent. The log D7.4 values were calculated by correlating the capacity factors with the known values of the standards via polynomial fitting.

PfFNT G107S = molecular target: T2, PfFNT G107S (Plasmodium falciparum, UniProt O77389, G107S); test: Yeast-based 14C-lactate transport assay, PfFNT G107S resistance mutant; assay type: cell-based
T2 construct: expressed in transfected cells; host or cells: Saccharomyces cerevisiae (yeast transport assay; strain as for wild type, inferred from the shared method)
T2 sequence (O77389 1-309 G107S): T1 sequence (O77389 1-309) with G107S
Protocol: as §1, §2

| SMILES | IC50 (PfFNT [1]) [nM] | Ki (PfFNT [2]) [nM] | activity at 0.05 µM [3] [%] | activity at 0.1 µM [3] [%] | activity at 0.2 µM [3] [%] | inhibition at 0.05 µM [3] [%] | parasites eliminated (P. berghei) [%] | unbound fraction in plasma (albumin) [%] | albumin binding (albumin; 5 μM) [%] | EC50 [4] [nM] | human liver microsomes Clint [5] [mL min^–1 kg^–1] | half-life at 1 µM ([5]; human, pooled human liver microsomes, pH 7.4, read-out: human liver microsomes t1/2) [min] | chromatographic logD [6] | Ki (PfFNT [2]; competition against BH267.meta-DY647 tracer, Cheng Prusoff, read-out: Ki (FCCS, protein)) [nM] | IC50 (PfFNT G107S) [µM] |
| --- | --- | --- | --- | --- | --- | --- | --- | --- | --- | --- | --- | --- | --- | --- | --- |
| O=C(/C=C(\O)C(F)(F)C(F)(F)F)c1ccc(NCC2CC2)nc1 [7m, 1-(6-((Cyclopropylmethyl)amino)pyridin-3-yl)-4,4,5,5,5-pentafluoro-3-hydroxypent-2-en-1-one] | 170 ± 10 | 18 ± 3 | 6 | 3 | 2 | 94 |  |  |  |  |  |  |  |  |  |
| CC(C)Nc1ccc(C(=O)/C=C(\O)C(F)(F)C(F)(F)F)cn1 [7n, 4,4,5,5,5-Pentafluoro-3-hydroxy-1-(6-(isopropylamino)pyridin-3-yl)pent-2-en-1-one] | 150 ± 10 | 67 ± 11 | 53 | 31 | 15 |  |  |  |  |  |  |  |  |  |  |
| CC(C)(C)Nc1ccc(C(=O)/C=C(\O)C(F)(F)C(F)(F)F)cn1 [7o, 1-(6-(tert-Butylamino)pyridin-3-yl)-4,4,5,5,5-pentafluoro-3-hydroxypent-2-en-1-one] | 370 ± 40 | 239 ± 101 | 97 | 97 | 93 |  |  |  |  |  |  |  |  |  |  |
| O=C(/C=C(\O)C(F)(F)C(F)(F)F)c1ccc(NCc2ccc(F)cc2)nc1 [7p, 4,4,5,5,5-Pentafluoro-1-(6-((4-fluorobenzyl)amino)pyridin-3-yl)-3-hydroxypent-2-en-1-one] | 390 ± 30 | 16 ± 3 | 37 | 7 | 0 |  |  |  |  |  |  |  |  |  |  |
| COc1cc(CNc2ccc(C(=O)/C=C(\O)C(F)(F)C(F)(F)F)cn2)cc(OC)c1OC [7q, 4,4,5,5,5-Pentafluoro-3-hydroxy-1-(6-((3,4,5-trimethoxybenzyl)amino)pyridin-3-yl)pent-2-en-1-one] | 2110 ± 320 | 49 ± 12 | 107 | 105 | 117 |  |  |  |  |  |  |  |  |  |  |
| CCCN(C)c1ccc(C(=O)/C=C(\O)C(F)(F)C(F)(F)F)cn1 [7r, 4,4,5,5,5-Pentafluoro-3-hydroxy-1-(6-(methyl(propyl)amino)pyridin-3-yl)pent-2-en-1-one] | 350 ± 80 | 98 ± 11 | 114 |  | 96 |  |  |  |  |  |  |  |  |  |  |
| CCN(CC)c1ccc(C(=O)/C=C(\O)C(F)(F)C(F)(F)F)cn1 [7s, 1-(6-(Diethylamino)pyridin-3-yl)-4,4,5,5,5-pentafluoro-3-hydroxypent-2-en-1-one] | 380 ± 20 | 142 ± 24 | 71 | 76 | 80 |  |  |  |  |  |  |  |  |  |  |
| CCC(=O)Nc1ccc(C(=O)/C=C(\O)C(F)(F)C(F)(F)F)cn1 [8b, N-(5-(4,4,5,5,5-Pentafluoro-3-hydroxypent-2-enoyl)pyridin-2-yl)propionamide] | 250 ± 20 | 27 ± 4 | 17 | 10 | 4 |  |  |  |  |  |  |  |  |  |  |
| O=C(/C=C(\O)C(F)(F)C(F)(F)F)c1ccc(NC(=O)c2ccccc2)nc1 [8c, N-(5-(4,4,5,5,5-Pentafluoro-3-hydroxypent-2-enoyl)pyridin-2-yl)benzamide] | 370 ± 20 | 16 ± 2 | 78 | 51 | 13 |  |  |  |  |  |  |  |  |  |  |
| O=C(/C=C(\O)C(F)(F)C(F)(F)F)c1cccnc1 [compound 2, 4,4,5,5,5-Pentafluoro-3-hydroxy-1-(pyridin-3-yl)pent-2-en-1-one, reference compound] |  |  | > 90 |  |  | < 10 | > 99.7 | 8.76 | 91.24 | 240 ± 10 | 3.98 | 348 | 1.75 | 35 ± 10 |  |
| O=C(/C=C(\O)C(F)(F)C(F)(F)F)c1cccc(O)c1 [compound 6, 4,4,5,5,5-Pentafluoro-3-hydroxy-1-(3-hydroxyphenyl)pent-2-en-1-one] | 160 ± 10 | 26 ± 3 |  |  |  |  |  |  |  |  |  |  |  |  | 6.71 |
